# Experimental data taken from US11547697B2, “Heterocyclic compounds and uses thereof” (MILLENNIUM PHARMACEUTICALS, INC., priority 2009, dated 2023).
# pIC50: −log10 of the molar value. Entries after “also recorded” stand apart in the source; their conditions may differ.
# Legend:
# [1] = 5 μM, PBS pH 7.4, 37° C., 24 hours; cited from earlier work
# [2] = system: lupus disease model mice (R2KO, BXSB or MLR/lpr); conditions: B6.Sle1z.Sle3z model (T. Wu et al.); cited from earlier work
# [3] = system: p190 transduced leukemic cells; conditions: about 70 mg/kg twice daily, p190 model; cited from earlier work
# [4] = system: 786-O cells, a human kidney carcinoma cell line; assay: In vivo efficacy in 786-O xenograft (non-mutated PI3Kα); parameters: species or system mice; conditions: FIG. 6
# Excerpt: For example, a test compound is compared to a kinase inhibitor with specificity for mTor. […] FIG. 6 also provides biochemical potency data for the two compared inhibitors.
# [5] = target: p110α/p85α (Homo sapiens (Human), UniProt P42336); assay: PI 3-Kinase (human) HTRF assay, p110α/p85α; type: biochemical; conditions: PI3K α compared with β, δ, γ
# Chain of p110α/p85α (P42336 whole entry): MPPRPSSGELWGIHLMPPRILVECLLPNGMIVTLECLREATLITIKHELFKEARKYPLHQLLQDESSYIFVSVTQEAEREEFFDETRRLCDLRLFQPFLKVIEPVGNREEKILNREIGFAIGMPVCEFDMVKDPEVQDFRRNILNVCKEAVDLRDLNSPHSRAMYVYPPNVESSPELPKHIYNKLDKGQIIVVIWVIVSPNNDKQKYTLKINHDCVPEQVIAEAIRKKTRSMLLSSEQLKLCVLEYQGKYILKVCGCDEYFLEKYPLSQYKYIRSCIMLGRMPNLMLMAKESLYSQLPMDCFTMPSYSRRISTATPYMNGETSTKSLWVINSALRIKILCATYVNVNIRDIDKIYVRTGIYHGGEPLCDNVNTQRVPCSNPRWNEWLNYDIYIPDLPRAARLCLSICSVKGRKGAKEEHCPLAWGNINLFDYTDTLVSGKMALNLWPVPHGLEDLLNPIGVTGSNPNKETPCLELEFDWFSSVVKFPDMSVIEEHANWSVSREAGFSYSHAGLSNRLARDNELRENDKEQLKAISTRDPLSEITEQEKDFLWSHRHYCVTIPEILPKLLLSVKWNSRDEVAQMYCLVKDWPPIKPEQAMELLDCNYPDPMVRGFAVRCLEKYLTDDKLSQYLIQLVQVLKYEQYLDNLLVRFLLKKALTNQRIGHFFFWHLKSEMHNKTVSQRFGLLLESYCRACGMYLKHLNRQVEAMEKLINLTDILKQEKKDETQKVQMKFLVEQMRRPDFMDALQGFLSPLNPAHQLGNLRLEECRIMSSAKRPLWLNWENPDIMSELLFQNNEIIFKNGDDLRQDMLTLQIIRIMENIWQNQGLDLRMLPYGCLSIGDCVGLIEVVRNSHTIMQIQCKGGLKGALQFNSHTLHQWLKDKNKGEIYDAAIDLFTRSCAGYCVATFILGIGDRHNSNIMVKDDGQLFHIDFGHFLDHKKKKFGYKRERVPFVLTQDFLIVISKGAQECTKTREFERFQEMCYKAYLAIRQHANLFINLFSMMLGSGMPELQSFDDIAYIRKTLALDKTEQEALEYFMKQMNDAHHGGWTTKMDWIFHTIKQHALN
# Chain of p110α/p85α (P27986 whole entry partner): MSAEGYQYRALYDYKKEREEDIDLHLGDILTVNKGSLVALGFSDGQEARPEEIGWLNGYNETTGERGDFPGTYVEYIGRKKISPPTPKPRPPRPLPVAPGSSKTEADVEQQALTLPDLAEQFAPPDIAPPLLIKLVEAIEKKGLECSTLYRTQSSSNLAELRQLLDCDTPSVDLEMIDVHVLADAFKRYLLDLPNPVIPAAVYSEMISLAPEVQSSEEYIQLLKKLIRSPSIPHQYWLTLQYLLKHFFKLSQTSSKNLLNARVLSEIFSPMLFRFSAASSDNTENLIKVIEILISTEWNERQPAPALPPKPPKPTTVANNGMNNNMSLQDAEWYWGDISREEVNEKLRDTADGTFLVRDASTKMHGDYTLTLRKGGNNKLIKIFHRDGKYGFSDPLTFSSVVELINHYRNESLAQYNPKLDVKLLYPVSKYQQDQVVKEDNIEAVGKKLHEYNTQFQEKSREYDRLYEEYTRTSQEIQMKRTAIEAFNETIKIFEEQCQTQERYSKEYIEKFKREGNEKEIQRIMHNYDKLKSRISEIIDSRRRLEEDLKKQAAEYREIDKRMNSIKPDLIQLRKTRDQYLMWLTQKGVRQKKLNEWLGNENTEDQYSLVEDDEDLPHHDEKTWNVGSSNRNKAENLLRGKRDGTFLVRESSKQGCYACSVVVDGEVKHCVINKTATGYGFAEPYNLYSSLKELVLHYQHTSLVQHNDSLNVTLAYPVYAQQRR
# [6] = system: pAKT(S473), pAKT(T308), pS6, p4E-BP1 in MDA-MB-361, T47D, PC3 cells; assay: Inhibition of PI3K pathway in tumor cells (Western blot of pAKT, pS6, p4E-BP1); type: cell-based; conditions: FIG. 2; 0.1 μM, 1 μM, and 10 μM, about 2 hours
# Method: Cells comprising one or more mutations in PI3Kα, including but not limited to breast cancer cells (e.g., MDA-MB-361 and T47D), and cells comprising one or more mutations in PTEN including but not limited to prostate cancer cells (e.g., PC3), are typically grown in cell growth media such as DMEM supplemented with fetal bovine serum and/or antibiotics, and grown to confluency. Cells are then treated with various concentrations of test compound for about 2 hours and subsequently lysed in cell lysis buffer. Lysates are subjected to SDS-PAGE followed by Western blot analysis to detect downstream signaling markers, including but not limited to pAKT(S473), pAKT(T308), pS6, and p4E-BP1.
# [7] = system: MDA-MB-361 (PI3Kα/HER2 carcinoma) tumors; assay: In vivo efficacy in xenogenic mouse model of breast cancer
# Method: Blood glucose is monitored periodically following administration of treatment. […] The effect of the compounds on the localization/viability of marginal zone B cells in the spleen is also evaluated at the conclusion of treatment.
# [8] = target: p110γ (Homo sapiens (Human), UniProt P48736); assay: PI 3-Kinase (human) HTRF assay, p110γ; type: biochemical; conditions: read-out: PI3K γ IC50
# Chain of p110γ (P48736 whole entry): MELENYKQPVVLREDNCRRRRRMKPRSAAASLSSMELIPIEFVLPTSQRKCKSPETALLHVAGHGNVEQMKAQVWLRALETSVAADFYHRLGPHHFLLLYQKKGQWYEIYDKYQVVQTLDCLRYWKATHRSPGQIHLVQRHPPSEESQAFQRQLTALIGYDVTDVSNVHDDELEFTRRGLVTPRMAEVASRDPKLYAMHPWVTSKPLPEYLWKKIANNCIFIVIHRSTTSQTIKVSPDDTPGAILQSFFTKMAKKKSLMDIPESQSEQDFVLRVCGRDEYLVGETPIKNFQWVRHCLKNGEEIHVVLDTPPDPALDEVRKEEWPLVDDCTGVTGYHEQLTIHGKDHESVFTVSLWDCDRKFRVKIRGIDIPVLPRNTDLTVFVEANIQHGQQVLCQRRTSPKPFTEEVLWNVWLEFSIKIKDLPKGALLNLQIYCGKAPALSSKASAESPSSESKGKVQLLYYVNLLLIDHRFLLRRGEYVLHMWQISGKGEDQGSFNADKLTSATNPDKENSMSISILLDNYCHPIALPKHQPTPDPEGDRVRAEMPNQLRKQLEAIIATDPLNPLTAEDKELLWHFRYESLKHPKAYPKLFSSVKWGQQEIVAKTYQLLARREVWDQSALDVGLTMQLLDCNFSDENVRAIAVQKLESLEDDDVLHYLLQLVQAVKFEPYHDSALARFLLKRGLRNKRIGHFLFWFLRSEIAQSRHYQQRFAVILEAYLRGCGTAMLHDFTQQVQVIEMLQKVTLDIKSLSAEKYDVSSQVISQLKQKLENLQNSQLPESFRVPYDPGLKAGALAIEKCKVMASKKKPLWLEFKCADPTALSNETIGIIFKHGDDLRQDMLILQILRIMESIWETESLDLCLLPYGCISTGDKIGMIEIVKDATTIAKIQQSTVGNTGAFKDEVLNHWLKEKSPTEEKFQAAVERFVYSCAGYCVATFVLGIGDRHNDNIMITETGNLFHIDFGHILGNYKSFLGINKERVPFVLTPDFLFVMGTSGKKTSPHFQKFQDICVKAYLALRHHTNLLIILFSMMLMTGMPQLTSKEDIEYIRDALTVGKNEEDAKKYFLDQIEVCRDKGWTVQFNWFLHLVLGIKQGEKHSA
# [9] = system: HCT116 cells; assay: Cell arrest assay, alone and in combination with MEK inhibitor; type: cell-based, human
# Method: Cells are then incubated in the presence of DMSO or inhibitor for 20 hours. The number of cells at each stage in the cell cycle is determined and expressed as a percent of the total, with an increase in the number of cells arrested at pre-GO/G1 indicating effective inhibition of cell cycle progression.
# [10] = system: tumor cells with a PI3Kα mutation (e.g., MDA-MB-361 and T47D); assay: Proliferation of tumor cells with PI3Kα mutation; type: cell-based
# [11] = system: human umbilical vein endothelial cells (HUVEC); assay: In vitro inhibition of angiogenesis, tube formation assay; type: cell-based; conditions: FIG. 3
# Method: Inhibition of angiogenesis in the presence of test compound is evaluated using a tube formation assay, such as by using a tube formation assay kit (e.g., commerically available from Invitrogen). Angiogenic capacity can be measured in vitro using an endothelial cell line, such as human umbilical vein endothelial cells (HUVEC). The assay is conducted according to the kit instructions, in the presence or absence of compound. Briefly, a gel matrix is applied to a cell culture surface, cells are added to the matrix-covered surface along with growth factors, with some samples also receiving an inhibitor compound, cells are incubated at 37° C. and 5% CO2 long enough for control samples (no compound added) to form tube structures (such as overnight), cells are stained using a cell-permeable dye (e.g., calcein), and cells are visualized to identify the degree of tube formation. Any decrease in tube formation relative to un-inhibited control cells is indicative of angiogenic inhibition. […] Based on doses tested and the corresponding degree of tube formation inhibition, IC50 values for tube formation are calculated. FIG. 3 also provides IC50 values for cell viability, which can be measured using any number of methods known in the art, such as staining methods that distinguish live from dead cells (e.g., Image-iT DEAD Green viability stain commercially available from Invitrogen).
structure (smiles),measurement,setting,value
"O=C(O)CCCc1ccc(N(CCCl)CCCl)cc1 [chlorambucil, 4-[bis(2-chloroethyl)amino]benzenebutanoic acid]",Chemical stability of reference compound,[1],largely hydrolyzed over the course of 24 hours
CO[C@H]1C[C@@H]2CC[C@@H](C)[C@@](O)(O2)C(=O)C(=O)N2CCCC[C@H]2C(=O)O[C@H]([C@H](C)C[C@@H]2CC[C@@H](OCCO)[C@H](OC)C2)CC(=O)[C@H](C)/C=C(\C)[C@@H](O)[C@@H](OC)C(=O)[C@H](C)C[C@H](C)/C=C/C=C/C=C/1C [RAD001],Effect on lupus symptoms,[2],ameliorate lupus symptoms
Cc1ccc(NC(=O)c2ccc(CN3CCN(C)CC3)cc2)cc1Nc1nccc(-c2cccnc2)n1 [imatinib],Effect on leukemogenesis,[3],delay but not cure leukemogenesis
Nc1nc2cc(-c3ccc4ncc(C(=O)N5CCOCC5)n4c3)ccc2o1 [compound 54],Anti-tumor activity in 786-O tumors,[4],"still showing some anti-tumor activity, has decreased activity by comparison to that seen in the MDA derived tumors"
same,"Specificity of PI3K α inhibition versus PI3K β, δ and γ (IC50, FIG. 1 / FIG. 3)",[5],"Inhibition of PI3K α at lower concentrations than those for β, δ, and γ; also recorded: specificity for PI3K α inhibition"
same,Inhibition of the PI3K pathway (downstream signaling markers),[6],inhibits the PI3K pathway
same,Impact on blood glucose,"[7]; MDA-MB-361 tumor-bearing nude mice, daily oral dosing, FIG. 4",without the impact on blood glucose
same,Kinase- and tumor growth-inhibition activity,"[7]; MDA-MB-361 tumors in nude mice, 30 mpk or 60 mpk test compound, 70 mpk Pan-PI3K inhibitor, daily oral lavage, FIG. 4",comparable kinase- and tumor growth-inhibition activity to the Pan-PI3K inhibitor
same,Localization/viability of marginal zone B cells in the spleen,"[7]; at conclusion of treatment, FIG. 5",does not affect localization/viability of marginal zone B cells
same,pIC50,[8],> 5.00
same,"Arrested cells (pre-GO/G1), percent of the total","[9]; 3 μM compound 54 combined with 0.3 μM MEK inhibitor (PD0325901), 20 hours, FIG. 7",55%
same,"Cell cycle arrest, single inhibitor versus DMSO control","[9]; 3 μM compound 54 or 0.3 μM PD0325901, 20 hours",some increase in cell cycle arrest by comparison to DMSO control
same,Combination effect with other (MEK) inhibitors,[9]; compound 54 plus MEK inhibitor,synergistic
same,Arrested cells expected by merely adding the individual effects,"[9]; sum of 3 μM compound 54 alone and 0.3 μM MEK inhibitor alone, 20 hours",40%
same,Inhibition of proliferation of tumor cells with a PI3Kα mutation,[10]; FIG. 2,inhibits the PI3K pathway and the proliferation of tumor cells with a PI3Kα mutation
same,pIC50,"[10]; Homo sapiens, T47D cells, read-out: T47D proliferation",> 5.00
same,Potency of angiogenesis inhibition (tube formation) compared with Pan-PI3K inhibitor,[11],comparable to higher potency
